Reference: the supplement of paper PMC10307832

Each cell line was assayed with C1CCC(CC1)N(CCNCCC2=C3C(=C(C=C2)O)NC(=O)CO3)C(=O)CCNCCC4=CC(=C(C=C4)Cl)Cl [AZ505] + N=C(N)NC(=N)NCCc1ccccc1 [Phenformin] (partner 250 µM) (assay: relative viability (nuclei count vs DMSO), 5 days (fraction); higher = more cells survive). Conditions: first compound 0.08 µM.
Summary of the method: (§1)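 Each reported value is a median over duplicate plates. It expresses relative viability: treated-well nuclei count divided by vehicle-well nuclei count. Lung cancer cell lines in 1536-well plates were dosed by pin tool a day after seeding, alone with one drug or with a fixed anchor-drug dose plus five library-drug doses (not always all listed) in √10 steps, and nuclei were counted after 5 days.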
With NCI-H1355 the relative viability was 0.433. For NCI-H3122, the relative viability was 0.369. Cell Line NCI-H1437 has a relative viability of 0.311. NCI-H1755 showed a relative viability of 0.615. NCI-H2023 showed a relative viability of 0.379. With HCC-15 the relative viability was 0.411. NCI-H1793 gave a relative viability of 0.248. PC-14 gave a relative viability of 0.519. EKVX gave a relative viability of 0.21. For LC-2-ad, the relative viability was 0.561. With NCI-H1944 the relative viability was 0.197. Cell Line NCI-H1975 has a relative viability of 0.348. RERF-LC-KJ was tested, and the relative viability was 0.393. For ABC-1, the relative viability was 0.196. Cell Line NCI-H358 has a relative viability of 0.356. NCI-H650 was tested, and the relative viability was 0.443. PC-3 [JPC-3] was tested, and the relative viability was 0.423.

Same assay, conditions: first compound 0.253 µM
For EPLC-272H, the relative viability was 0.283. With NCI-H2228 the relative viability was 0.222. NCI-H1355 showed a relative viability of 0.407. NCI-H3122 was tested, and the relative viability was 0.353. NCI-H1437 was tested, and the relative viability was 0.286. NCI-H1755 showed a relative viability of 0.592. Cell Line NCI-H2023 has a relative viability of 0.449. Work on HCC-15 yielded a relative viability of 0.476. With NCI-H1793 the relative viability was 0.338. For PC-14, the relative viability was 0.328. Cell Line EKVX has a relative viability of 0.245. With LC-2-ad the relative viability was 0.538. Work on NCI-H1944 yielded a relative viability of 0.184. With NCI-H1975 the relative viability was 0.402. RERF-LC-KJ showed a relative viability of 0.436. ABC-1 gave a relative viability of 0.211. Cell Line NCI-H358 has a relative viability of 0.346. For NCI-H650, the relative viability was 0.389. For PC-3 [JPC-3], the relative viability was 0.446.

Same assay, conditions: first compound 0.8 µM
With EPLC-272H the relative viability was 0.304. For NCI-H2228, the relative viability was 0.279. In the case of NCI-H1792, the relative viability is reported as 0.31. NCI-H1355 gave a relative viability of 0.477. Cell Line NCI-H3122 has a relative viability of 0.37. In the case of NCI-H1437, the relative viability is reported as 0.298. NCI-H1755 showed a relative viability of 0.663. With NCI-H2023 the relative viability was 0.405. In the case of HCC-15, the relative viability is reported as 0.474. For NCI-H1793, the relative viability was 0.454. PC-14 gave a relative viability of 0.573. In the case of EKVX, the relative viability is reported as 0.238. In the case of LC-2-ad, the relative viability is reported as 0.572. In the case of NCI-H1944, the relative viability is reported as 0.233. With NCI-H1975 the relative viability was 0.419. With RERF-LC-KJ the relative viability was 0.394. For ABC-1, the relative viability was 0.242. NCI-H358 showed a relative viability of 0.351. NCI-H650 showed a relative viability of 0.468. With PC-3 [JPC-3] the relative viability was 0.433.

Same assay, conditions: first compound 2.53 µM
EPLC-272H was tested, and the relative viability was 0.241. In the case of NCI-H2228, the relative viability is reported as 0.392. For NCI-H1792, the relative viability was 0.417. NCI-H1355 was tested, and the relative viability was 0.481. Cell Line NCI-H3122 has a relative viability of 0.357. For NCI-H1437, the relative viability was 0.317. For NCI-H1755, the relative viability was 0.639. For NCI-H2023, the relative viability was 0.442. In the case of HCC-15, the relative viability is reported as 0.415. PC-14 showed a relative viability of 0.482. With EKVX the relative viability was 0.198. In the case of LC-2-ad, the relative viability is reported as 0.64. Cell Line NCI-H1944 has a relative viability of 0.193. With NCI-H1975 the relative viability was 0.405. RERF-LC-KJ gave a relative viability of 0.348. ABC-1 was tested, and the relative viability was 0.252. With NCI-H358 the relative viability was 0.24. NCI-H650 was tested, and the relative viability was 0.509. Work on PC-3 [JPC-3] yielded a relative viability of 0.484.

Same assay, conditions: first compound 8 µM
EPLC-272H gave a relative viability of 0.324. In the case of NCI-H2228, the relative viability is reported as 0.224. NCI-H1792 was tested, and the relative viability was 0.263. With NCI-H1355 the relative viability was 0.499. In the case of NCI-H3122, the relative viability is reported as 0.414. For NCI-H1437, the relative viability was 0.311. In the case of NCI-H1755, the relative viability is reported as 0.688. In the case of NCI-H2023, the relative viability is reported as 0.31. With HCC-15 the relative viability was 0.446. In the case of NCI-H1793, the relative viability is reported as 0.368. PC-14 showed a relative viability of 0.668. For EKVX, the relative viability was 0.251. LC-2-ad was tested, and the relative viability was 0.579. Cell Line NCI-H1944 has a relative viability of 0.21. For NCI-H1975, the relative viability was 0.429. RERF-LC-KJ gave a relative viability of 0.358. Work on ABC-1 yielded a relative viability of 0.219. NCI-H358 showed a relative viability of 0.364. For NCI-H650, the relative viability was 0.457. Cell Line PC-3 [JPC-3] has a relative viability of 0.422.

The cell lines below were run with Cn1c(=O)n(-c2ccc(C(C)(C)C#N)cc2)c2c3cc(-c4cnc5ccccc5c4)ccc3ncc21 [Dactolisib] + N=C(N)NC(=N)NCCc1ccccc1 [Phenformin] (partner 250 µM) in the same assay as above. Conditions: first compound 0.002 µM.
Summary of the method: as §1
In the case of EPLC-272H, the relative viability is reported as 0.351. Work on NCI-H2228 yielded a relative viability of 0.302. Work on NCI-H1792 yielded a relative viability of 0.249. With NCI-H1355 the relative viability was 0.497. NCI-H3122 showed a relative viability of 0.381. With NCI-H1437 the relative viability was 0.27. In the case of NCI-H1755, the relative viability is reported as 0.647. NCI-H2023 was tested, and the relative viability was 0.43. For HCC-15, the relative viability was 0.482. Cell Line NCI-H1793 has a relative viability of 0.477. PC-14 gave a relative viability of 0.642. With EKVX the relative viability was 0.26. In the case of LC-2-ad, the relative viability is reported as 0.601. In the case of NCI-H1944, the relative viability is reported as 0.235. Work on NCI-H1975 yielded a relative viability of 0.435. RERF-LC-KJ showed a relative viability of 0.42. With ABC-1 the relative viability was 0.246. Cell Line NCI-H358 has a relative viability of 0.317. With NCI-H650 the relative viability was 0.549. Cell Line PC-3 [JPC-3] has a relative viability of 0.494.

Same assay, conditions: first compound 0.006325 µM
For EPLC-272H, the relative viability was 0.25. In the case of NCI-H2228, the relative viability is reported as 0.272. NCI-H1792 showed a relative viability of 0.172. NCI-H1355 gave a relative viability of 0.429. In the case of NCI-H3122, the relative viability is reported as 0.385. In the case of NCI-H1437, the relative viability is reported as 0.341. With NCI-H1755 the relative viability was 0.617. NCI-H2023 showed a relative viability of 0.361. Cell Line HCC-15 has a relative viability of 0.488. Cell Line NCI-H1793 has a relative viability of 0.294. In the case of PC-14, the relative viability is reported as 0.523. EKVX gave a relative viability of 0.222. LC-2-ad was tested, and the relative viability was 0.572. Work on NCI-H1944 yielded a relative viability of 0.21. Work on NCI-H1975 yielded a relative viability of 0.382. RERF-LC-KJ gave a relative viability of 0.415. For ABC-1, the relative viability was 0.244. Cell Line NCI-H358 has a relative viability of 0.302. Work on NCI-H650 yielded a relative viability of 0.475. Cell Line PC-3 [JPC-3] has a relative viability of 0.485.

Same assay, conditions: first compound 0.02 µM
EPLC-272H showed a relative viability of 0.268. Work on NCI-H2228 yielded a relative viability of 0.179. In the case of NCI-H1792, the relative viability is reported as 0.262. In the case of NCI-H1355, the relative viability is reported as 0.43. NCI-H3122 gave a relative viability of 0.416. NCI-H1437 gave a relative viability of 0.323. NCI-H1755 was tested, and the relative viability was 0.612. Cell Line NCI-H2023 has a relative viability of 0.309. Cell Line HCC-15 has a relative viability of 0.449. With NCI-H1793 the relative viability was 0.228. For PC-14, the relative viability was 0.45. EKVX showed a relative viability of 0.229. LC-2-ad was tested, and the relative viability was 0.539. NCI-H1944 was tested, and the relative viability was 0.187. NCI-H1975 showed a relative viability of 0.376. Work on RERF-LC-KJ yielded a relative viability of 0.428. For ABC-1, the relative viability was 0.24. NCI-H358 was tested, and the relative viability was 0.286. For NCI-H650, the relative viability was 0.433. With PC-3 [JPC-3] the relative viability was 0.475.

Same assay, conditions: first compound 0.06325 µM
EPLC-272H gave a relative viability of 0.228. Work on NCI-H2228 yielded a relative viability of 0.192. Work on NCI-H1792 yielded a relative viability of 0.101. Cell Line NCI-H1355 has a relative viability of 0.373. NCI-H3122 gave a relative viability of 0.378. Work on NCI-H1437 yielded a relative viability of 0.296. In the case of NCI-H1755, the relative viability is reported as 0.549. With NCI-H2023 the relative viability was 0.14. For HCC-15, the relative viability was 0.291. For NCI-H1793, the relative viability was 0.202. Cell Line PC-14 has a relative viability of 0.29. EKVX gave a relative viability of 0.225. In the case of LC-2-ad, the relative viability is reported as 0.42. NCI-H1944 was tested, and the relative viability was 0.138. For NCI-H1975, the relative viability was 0.216. RERF-LC-KJ was tested, and the relative viability was 0.298. ABC-1 was tested, and the relative viability was 0.231. NCI-H358 showed a relative viability of 0.221. Work on NCI-H650 yielded a relative viability of 0.389. For PC-3 [JPC-3], the relative viability was 0.47.

Same assay, conditions: first compound 0.2 µM
With EPLC-272H the relative viability was 0.259. NCI-H2228 gave a relative viability of 0.164. NCI-H1792 gave a relative viability of 0.0814. NCI-H1355 showed a relative viability of 0.316. Work on NCI-H3122 yielded a relative viability of 0.317. For NCI-H1437, the relative viability was 0.289. Cell Line NCI-H1755 has a relative viability of 0.476. NCI-H2023 gave a relative viability of 0.122. In the case of HCC-15, the relative viability is reported as 0.184. In the case of NCI-H1793, the relative viability is reported as 0.187. With PC-14 the relative viability was 0.144. With EKVX the relative viability was 0.215. With LC-2-ad the relative viability was 0.391. In the case of NCI-H1944, the relative viability is reported as 0.14. Work on NCI-H1975 yielded a relative viability of 0.162. Cell Line RERF-LC-KJ has a relative viability of 0.302. Cell Line ABC-1 has a relative viability of 0.199. With NCI-H358 the relative viability was 0.111. In the case of NCI-H650, the relative viability is reported as 0.315. With PC-3 [JPC-3] the relative viability was 0.469.
